Assay [1] relates to genetically diabetic C57 BL male db/db mice. Kind of assay: Plasma glucose reduction in genetically diabetic db/db mice after 5 days of oral treatment. It is filed as in vivo. To be noted: Mus musculus, 120 h, 5 consecutive days, plasma glucose reduction vs basal level before treatment; for inhibition in vivo at 1 mg/kg: 1 mg/kg p.o.; for inhibition in vivo at 10 mg/kg: 10 mg/kg p.o.; for inhibition in vivo at 5 mg/kg: 5 mg/kg p.o. The procedure:
The pharmacological effect of the compounds is assessed in genetically diabetic C57 BL male db/db 9–11 weeks old mice, as well as in control C57 BL db/+ animals of the same strain and age. […] In each experimental group, 8–10 animals are used, which are treated with different doses of the compounds: 1 mg/kg, 5 mg/kg, 10 mg/kg or 25 mg/kg orally during 5 consecutive days.
In the day 0 of the experiment, blood samples are collected in heparinized tubes by punction of the retroorbital vein. Plasma is separated and the levels of basal glucose and insulin are quantified.
After concluding the treatments, blood samples of each animal are collected again and plasmatic post-treatment glucose and insulin levels are quantified.
The determination of glucose is carried out by means of an enzymatic method that converts glucose into glucose 6-phosphate, a reaction coupled with the reduction of nicotinamide-dinucleotide phosphate (NADP) to NADPH by the action of glucose-6-P-dehydrogenase. The NADPH reduces the iodonitrotetrazolium, which is quantified spectrophotometrically. The absorbency at 520 nm is proportional to the concentration of glucose, ref: Randox GI, 2623 (Bergmeyer H. U., Bernt E., Schmidt F. H., Stork H. In Methods of Enzymatic Analysis, Academic Press: London and New York 1974, p. 1196).
The results are expressed as the reduction percent with regard to the basal levels determined before the beginning of the treatment.

For assay [2] the test system is unchanged. The description is as above. It is filed as in vivo. As to conditions: Mus musculus, 120 h, 100 mg/kg p.o., 5 consecutive days, plasma glucose reduction vs basal level before treatment.

These results are taken from patent publication US7001910B1, “Thiazolidinedione derivatives as antidiabetic agents” (Vita-Invest S.A., priority 1999, dated 2006).

Compound `CN(CCOc1ccc(CC2SC(=O)NC2=O)cc1)c1cc(Cl)nc(N)n1` (centres unmarked) [Example 3, 5-(4-{2-[(2-amino-6-chloropyrimidin-4-yl)-methyl-amino]-ethoxy}-benzyl)-thiazolidine-2,4-dione] registered an inhibition in vivo at 1 mg/kg in assay [1] of 47%. `COc1cc(N(C)CCOc2ccc(CC3SC(=O)NC3=O)cc2)nc(OC)n1` (centres unmarked) [Example 4, 5-(4-{2-{(2,6-Dimethoxypyrimidin-4-yl)-methyl-amino]-ethoxy}-benzyl)-thiazolidine-2,4-dione] came in with an inhibition in vivo at 1 mg/kg in assay [1] of 53%.

As to `CN(CCOc1ccc(CC2SC(=O)NC2=O)cc1)c1ncnc2nc[nH]c12` (centres unmarked) [Example 7, 5-(4-{2-[Methyl-(7H-purin-6-yl)-amino]-ethoxy}-benzyl)-thiazolidine-2,4-dione], in assay [1], the inhibition in vivo at 10 mg/kg was determined as 47%.

The compound `CN(CCOc1ccc(CC2SC(=O)NC2=O)cc1)c1ncnc2c1ncn2C1OC(CO)C(O)C1O` (centres unmarked) [Example 11] gave an inhibition in vivo at 10 mg/kg in assay [1] of 30%. On the same count and under the same terms, the figure for `CN(CCOc1ccc(CC2SC(=O)NC2=O)cc1)c1ncnc2c1ncn2C` (centres unmarked) [Example 12, 5-(4-{2-[Methyl-(9-methyl-9H-purin-6-yl)-amino]-ethoxy}-benzyl)-thiazolidine-2,4-dione] is 25%. Take `CN(CCOc1ccc(CC2SC(=O)NC2=O)cc1)c1cc(Cl)ncn1` (centres unmarked) [Example 14, 5-(4-{2-[(6-chloropyrimidin-4-yl)-methylamino]-ethoxy}-benzyl)-thiazolidine-2,4-dione]: 1 mg/kg produced 51% inhibition in vivo in assay [1]. On the same count and under the same terms, the figure for `COc1cc(N(C)CCOc2ccc(CC3SC(=O)NC3=O)cc2)ncn1` (centres unmarked) [Example 17, 5-(4-{2-[(6-Methoxypyrimidin-4-yl)-methylamino]-ethoxy}-benzyl)-thiazolidine-2,4-dione] is 48%.

In assay [1], `CN(CCOc1ccc(CC2SC(=O)NC2=O)cc1)c1ccncn1` (centres unmarked) [Example 20, 5-{4-[2-(Methylpyrimidin-4-yl-amino)ethoxy]benzyl}-thiazolidine-2,4-dione] came in with an inhibition in vivo at 5 mg/kg of 21%. The compound `CN(C)c1cc(N(C)CCOc2ccc(CC3SC(=O)NC3=O)cc2)ncn1` (centres unmarked) [Example 21, 5-(4-{2-[(6-Dimethylaminopyrimidin-4-yl)-methylamino]-ethoxy}-benzyl)-thiazolidine-2,4-dione] gave an inhibition in vivo at 25 mg/kg in assay [1] (25 mg/kg p.o.) of 36%. `CN(CCOc1ccc(CC2SC(=O)NC2=O)cc1)c1cc(O)ncn1` (centres unmarked) [Example 22, 5-(4-{2-[(6-Hydroxypyrimidin-4-yl)-methylamino]-ethoxy}-benzyl)-thiazolidine-2,4-dione] returned an inhibition in vivo at 5 mg/kg in assay [1] of 22%. Take `Cc1c(C)c2c(c(C)c1O)CCC(C)(COc1ccc(CC3SC(=O)NC3=O)cc1)O2` (centres unmarked) [Troglitazone]: in assay [2], testing at 100 mg/kg gave an inhibition in vivo of 38%.
